Assay results from patent US7960483B2, “Adamantane derivative, composition comprising the derivative, and optical and electronic member using the composition” (Idemitsu Kosan Co., Ltd., priority 2006, dated 2011).

Key:
[1] = Compatibility test with bisphenol A (BPA) epoxy resin; type: physicochemical; details: 2.1 g sample + 0.9 g Epikote 828, mixed at 100-130° C., stood at room temperature; time until crystals begin precipitating
Description: A sample (2.1 g) and 0.9 g of a BPA epoxy resin (Epikote 828 manufactured by Japan Epoxy Resin Co., Ltd.) were heated to 100° C. to 130° C. and mixed. When a uniform mixture was confirmed to be obtained, the mixture was cooled to room temperature and allowed to quiescently stand to observe the precipitation of crystals with naked eyes and to determine the time period required for the crystals to begin precipitating. When the crystals began precipitating within 0 to 2 days, the evaluation was rated “C”. When 3 to 6 days were required, the evaluation was rated “B”. When no crystals were precipitated even when 7 days had passed, the evaluation was rated “A”.

[2] = Solubility test in cyclohexanone; details: saturation solubility at room temperature, liquid chromatography, about 3 days
Description: To 2 g of a sample 1 g of cyclohexanone was added. The mixture was heated to 80° C. to dissolve the sample and cooled to room temperature. Then seed crystals were added thereto and stirred. The solubility (unit: % by mass) of the sample in the solution was measured by liquid chromatography. Such stirring and measurement by liquid chromatography procedures were repeated for about 3 days. The saturation solubility represents the solubility value at which the measured solubility no longer changed.

| Solubility in cyclohexanone [2] | Compound | Compatibility with BPA type epoxy resin [1] |
| --- | --- | --- |
|  | 1,3-bis(glycidyloxyphenyl)adamantane [BP13-EPO, reference compound] | C (When the crystals began precipitating within 0 to 2 days, the evaluation was rated “C”) |
| 46 % by mass | c1cc(OCC2CO2)c(C2CCCCC2)cc1C12CC3CC(C1)CC(c1ccc(OCC4CO4)c(C4CCCCC4)c1)(C3)C2 (stereo not drawn) [BCHP13-EPO, 1,3-bis(4-glycidyloxy-3-cyclohexylphenyl)adamantane] | A (When no crystals were precipitated even when 7 days had passed, the evaluation was rated “A”) |
| 35 % by mass | Cc1cc(C23CC4CC(C2)CC(c2cc(C)c(OCC5CO5)c(C)c2)(C4)C3)cc(C)c1OCC1CO1 (stereo not drawn) [BDMP13-EPO, 1,3-bis(4-glycidyloxy-3,5-dimethylphenyl)adamantane] | A (When no crystals were precipitated even when 7 days had passed, the evaluation was rated “A”) |
| 32 % by mass | Cc1cc(C2(c3cc(C)c(OCC4CO4)c(C)c3)C3CC4CC(C3)CC2C4)cc(C)c1OCC1CO1 (stereo not drawn) [BDMP22-EPO, 2,2-bis(4-glycidyloxy-3,5-dimethylphenyl)adamantane] | B (When 3 to 6 days were required, the evaluation was rated “B”) |
| 33 % by mass | Cc1cc(C23CC4CC(C2)CC(c2ccc(OCC5CO5)c(C)c2)(C4)C3)ccc1OCC1CO1 (stereo not drawn) [BMP13-EPO, 1,3-bis(4-glycidyloxy-3-methylphenyl)adamantane] | B (When 3 to 6 days were required, the evaluation was rated “B”) |
